In patent US20080096922A1, “Novel Sulfonamide derivative” (Dainippon Sumitomo Pharma Co., Ltd., priority 2004, published 2008):

Key:
LDL receptor protein = assay: Measurement of an expression of a LDL receptor (immunoblotting, HepG2); assay type: cell-based, human; conditions: HepG2 cell, test compound at 0.1 and 1 μM, compared to a control group
Procedure: The activity of potentiating an expression of a LDL receptor by the test compounds were measured using a human hepatic cell line HepG2. Cells were seeded in a 6 well plate at the density of 7.5×10^5 cells/well (at first day). On third days, the medium was changed to a medium containing lipoprotein-deficient serum and the test compound. On forth days, the cells were scraped and collected by a centrifugation. The recovered cells were dissolved in a cell lysate buffer containing 0.1% TritonX-100 and after centrifugation, the supernatant was used as a solution of cell protein. The amount of the LDL-R protein was evaluated by an immunoblotting method using the above-prepared solution of cell protein.
After treating the HepG2 cell with the compound of Example 1-2, the amount of LDL receptor protein was detected by an immunoblotting method.

LDL receptor = assay: Effects on an activity of a LDL receptor: uptake amount of DiI-LDL into HepG2 cell; assay type: cell-based, human; conditions: control group as 100%
Procedure: The 1,1′-dioctadecyl-3,3,3′,3′-tetramethylindocarbocyanine perchlorate (DiI)-labeled LDL (DiI-LDL) was prepared as follows. That is, a DiI (Invitrogen Corp., U.S.A) was mixed with a human LDL (Chemicon International, Inc., U.S.A) and the mixture was incubated at 37° C. for 8 hours. […] After centrifugation, the DiI-labeled LDL fraction was separated and dialyzed with a physiological saline to prepare the above desired solution.
The effects on a LDL receptor activity were determined as the uptake amount of DiI-LDL into HepG2 cell. The cultured human hepatic cell line HepG2 cell was purchased from the Dainippon Pharmaceuticals Co. Ltd. (Osaka, Japan). The HepG2 cells were seeded in a 96 well plate and were incubated in the Dulbecco's modified Eagle/F-12 (DMEM/F-12) medium containing 10% fetal bovine serum and antibiotics in a CO2 incubator at 37° C. for two to three days. After washing the cells, a DMEM/F-12 medium containing 5-10% lipoprotein-deficient serum, the test substrate and the antibiotics were added thereto and the cells were incubated at 37° C. for 19 hours. After adding DiI-LDL, the cells were incubated in a CO2 incubator at 37° C. for another 5 hours. The uptake amount of non-specific DiI-LDL was measured by adding 30 to 50 folds amount of the non-labeled LDL. After washing the cells with Dulbecco's phosphate buffer (Sigma Corp., U.S.A.), the Dulbecco's phosphate buffer was added to each well and then the uptake amount of DiI-LDL into the cell line were measured as the value of fluorescence. After measuring the fluorescence, the Dulbecco's phosphate buffer was removed and thereto was added 1N sodium hydroxide solution to dissolve the cells and the amount of protein was measured by using a part of the resulting solution. The effect on a LDL receptor activity by each compound was determined by calculating the ratio of the amount of fluorescence/the amount of protein, and by subtracting the non-specific uptake amount therefrom and then calculating the control group as 100%.

SMILES | amount of a LDL receptor protein (LDL receptor protein) | Activity of (%) LDL receptor (LDL receptor; 10 μM) [%] | Activity of (%) LDL receptor (LDL receptor; 1 μM) [%]
COc1cccc(C2(C(=O)NS(=O)(=O)Oc3c(C(C)C)cccc3C(C)C)CCN(c3ccccc3OC)CC2)c1 [Example 1-2, 2,6-diisopropylphenyl {[1-(2-methoxyphenyl)-4-(3-methoxyphenyl)piperidin-4-yl]carbonyl}sulfamate] | superior increasing effect | 124 | –
COc1cccc([C@]2(CNS(=O)(=O)N(C)C(=O)OC(C)(C)C)CC[C@@H](NCc3ccc(-c4ccccc4)cc3)CC2)c1 [Example 48, tert-butyl [({[cis-4-[(biphenyl-4-ylmethyl)amino]-1-(3-methoxyphenyl)cyclohexyl]methyl}amino)sulfonyl]methylcarbamate] | – | – | 145
